From patent publication US20080131404A1, “Hepatocytes” (priority 2004, published 2008)

How the values were obtained:
HuH7 cells = test: TaqMan analysis of CYP3A4 mRNA in HuH7; type: cell-based, human; settings: HuH7 samples
Experimental: (§1) A standard TaqMan protocol was following using a 96 well optical reaction plate (Applied Biosystems, CA, USA). All probes and primers were supplied by MWG-Biotech, Ebersberg, Germany (see table 3). All probes were labelled with 3′TAMRA and 5′FAM. The reaction plate was sealed with optical adhesive cover (Applied Biosystems, CA, USA) and centrifuged for 1 min at 500 g before loading onto the TaqMan machine (ABI prism 7000 sequence detection system) and results analysed with ABI prism 7000 SDS software.

LIV0A07 [1] = test: TaqMan analysis of CYP3A4/CYP3A7 mRNA in LIV0A07; type: cell-based, human
Experimental: as §1

[2] = system: clone 20 hepatocytes (c-myc-ER infected human foetal hepatocytes); test: Telomerase assay (Telo TAGGG telomerase PCR ELISA); type: cell-based; settings: hepatocytes cultured in 0.5-10 μM 4-OHT
Experimental: Cells from clone 20, p2 were cultured in T25 flasks for 1 week in media with 0, 100 nM, 1 μM and 10 μM 4-OHT for 1 week. The cells had been in culture for 2 months. Uninfected hepatocytes from the same liver were also used for the assay. These cells had been in culture for 3 weeks. The assay was performed according to the instructions for the Telo TAGGG telomerase PCR ELISAPWs (Roche). The plate reader GENios (Tecan) was used to analyse the results. Some of the fluorescence values were too high for the plate readers' spectra so a change to the protocol was done and the fluorescence was measured from only ⅓ of the final volume.

LIV0A07 [3] = test: Immunocytochemistry for hepatocyte markers albumin and CK-18; type: cell-based, human; settings: grown in the absence of 4-OHT for 48 h
Experimental: Immunocytochemistry was used for early assessment of the cell line. […] The human hepatoma cell line HuH7 was used as a positive control for liver markers, while a myc-immortalised neural stem cell line (197VM) cells were used as a negative control.
All staining was performed in multiwell plates using the following method. Medium was aspirated and cells washed once with PBS prior to fixing using 4% paraformaldehyde for 15 min at room temperature. Cells were then washed three times in PBS, before being permeabilised for 15 min using 0.1% triton x-100 in PBS. Cells were washed with PBS once more then blocked for 1 h in 10% normal goat serum (NGS) (Vector Laboratories, CA, USA) in PBS. Primary antibodies were applied in 1% NGS/PBS for 1 h at room temperature. Cells were washed three times in PBS then exposed to the secondary antibody in 1% NGS/PBS for 1 h at room temperature. Cells were washed three times in PBS and Hoechst, a dye that stains DNA, was added for 2 min at room temperature (1:25,000 in PBS). Cells were washed a further three times in PBS and left in the final wash. Analysis was performed using a fluorescence microscope (Leica DMRA). The secondary antibody excited at a wavelength of ˜488 nm and gave emission at ˜525 nm (green emission) while Hoechst excited at ˜350 nm and emitted at ˜425 nm (blue emission).

LIV0A07 [4] = test: Cyquant cell proliferation assay; type: cell-based, human
Experimental: Growth rate was assessed using the Cyquant cell proliferation assay (Molecular Probes, Paisley, UK). Cells were grown in multiwell plates or 25 cm^2 flasks and experiments were performed according to the manufacturers instructions.
Growth rate was assessed using the Cyquant cell proliferation assay to compare growth of LIV0A07 over 5 days in […] 4-OHT.

human foetal liver cells = test: Neomycin titre and selection; type: cell-based; settings: 250 μg/ml neomycin, 2 week selection
Experimental: To determine what concentration of neomycin to use on the liver cells exposed to the virus, in order to eliminate all or the majority of non-infected cells, but not the infected cells, a titre of neomycin was set up. Human foetal liver cells from a dissociated liver that had never been exposed to the immortalising virus were plated in 6-well plates and exposed to neomycin concentrations ranging from 0-900 μg/ml for 12 days in triplicate. 100, 500 and 2000 cells/well were plate and the cells were left for 2 days before the neomycin was added. The growth and proliferation of the cells were studied visually with the TMS-F microscope (Nikon). Based on the result from the neomycin titre a concentration of 250 μg/ml neomycin was used for 2 weeks on the liver cells exposed to the immortalising virus.

Compound | effect of 4-OHT on CYP3A4 mRNA expression (HuH7 cells) | CYP3A7 mRNA level on differentiation (LIV0A07 [1]; absence of 4-OHT) | CYP3A4 mRNA level, differentiated vs undifferentiated cultures (LIV0A07 [1]; grown in the absence of 4-OHT for 72 h compared to cultures with 4-OHT) | telomerase expression [2] | albumin and CK-18 staining, differentiated cultures (LIV0A07 [3]) | proliferation (LIV0A07 [4]; 0.1 mM 4-OHT, 5 days) | toxicity to the cells (LIV0A07 [4]; 1.0 mM 4-OHT, initial slow proliferation after seeding) | proliferation (LIV0A07 [4]; 0.5 and 1.0 mM 4-OHT, 5 days) | optimum concentration for 4-OHT dependent growth (LIV0A07 [4]; in the medium, 5 days) [mM] | survival of noninfected cells during selection (human foetal liver cells)
4-hydroxytamoxifen [4-OHT] | no effect | did not display the same differentiation induced increase | approximately 15 fold | up regulates telomerase expression | slightly stronger | Little proliferation | may be slightly toxic | expanded to a greater extent | 0.5 to 1.0 | 
NC[C@@H]1O[C@H](O[C@H]2[C@@H](O)[C@H](O[C@@H]3[C@@H](O)[C@H](N)C[C@H](N)[C@H]3O[C@H]3O[C@H](CN)[C@@H](O)[C@H](O)[C@H]3N)O[C@@H]2CO)[C@H](N)[C@@H](O)[C@@H]1O [neomycin, Neomycin] |  |  |  |  |  |  |  |  |  | majority of the noninfected cells died
